# Columns and labels:
# [1] = system: ear edema induced by topical application of TPA; assay: TPA-Induced Ear Edema (TPAEE); format: in vivo, Female Swiss Webster mice; settings: for TPAEE (change in TPA-induced ear edema): 10 μg/ear topical, TPA 10 μg/ear, five hours
# Description: The purpose of this assay was to determine the ability of a topically-applied compound to prevent ear edema induced by topical application of TPA (phorbol 12-myristate acetate). Female Swiss Webster mice topically received TPA (10 μg/ear) on the right ear and vehicle on the left ear. The test compound (10 μg/ear) was applied to both ears. After five hours, the animals were sacrificed and an ear punch (4 mm) was taken from each ear. The difference in right and left ear punch weights for each animal was determined to assess activity. […] See Young, J. M. et al., J. Invest. Dermatol., 80 (1983), pp. 48-52.
# [2] = system: Scopolamine Induced Memory Deficit; assay: Dark Avoidance Assay (reversal of scopolamine induced memory deficit); format: in vivo; settings: mice
# Description: In this assay, mice are tested for their ability to remember an unpleasant stimulus for a period of 24 hours. A mouse is placed in a chamber that contains a dark compartment; a strong incandescent light drives it to the dark compartment, where an electric shock is administered through metal plates on the floor. The animal is removed from the testing apparatus and tested again, 24 hours later, for the ability to remember the electric shock.
# [3] = system: phenyl-para-quinone writhing; assay: phenyl-para-quinone writhing assay in mice (analgesia); format: in vivo
# Excerpt: The compounds of the present invention are useful as analgesic agents. […] Exptl. Biol. Med., 95, 729 (1957)].
smiles,measurement,setting,value
"C[C@]12CCC(=O)C=C1CC[C@@H]1[C@@H]2[C@@H](O)C[C@@]2(C)[C@H]1CC[C@]2(O)C(=O)CO [hydrocortisone, reference compound]",ED50 (TPA-induced ear edema),"[1]; standard, topical, mice",47 μg/ear
"CNC(=O)Oc1ccc2c(c1)[C@]1(C)CCN(C)[C@@H]1N2C [Physostigmine, reference compound]",% of Animals with Scopolamine Induced Memory Deficit Reversal,"[2]; 0.31 mg/kg s.c., 24 hours (reference)",20%
"Nc1ccncc1-c1noc2ccccc12.O=C(O)/C=C\C(=O)O [3-(1,2-Benzisoxazol-3-yl)-4-pyridinamine maleate]",% of Animals with Scopolamine Induced Memory Deficit Reversal,"[2]; 1.0 mg/kg s.c., 24 hours",21%
same,% of Animals with Scopolamine Induced Memory Deficit Reversal,"[2]; 10.0 mg/kg s.c., 24 hours",33%
same,% Inhibition of Writhing,"[3]; 20 mg/kg of body wt. s.c., mice",40%
same,TPAEE (change in TPA-induced ear edema),[1],-29%
"CC(C)(C)C(=O)Nc1ccncc1-c1noc2ccccc12 [N-[3-(1,2-Benzisoxazol-3-yl)-4-pyridinyl]-2,2-dimethylpropanamide]",% of Animals with Scopolamine Induced Memory Deficit Reversal,"[2]; 3.0 mg/kg s.c., 24 hours",20%
same,TPAEE (change in TPA-induced ear edema),[1],-23%
"CCC(=O)O[C@](Cc1ccccc1)(c1ccccc1)[C@H](C)CN(C)C [Propoxyphene, reference compound]",% Inhibition of Writhing,"[3]; 3.9 mg/kg of body wt. s.c., mice (standard)",50%

# Source: patent US5055476A, “3-(1,2-benzisoxazol-3-yl)-4-pyridinamines and derivatives” (Hoechst-Roussel Pharmaceuticals Incorporated, priority 1990, dated 1991)
